These are literature values, as cited in publication PMC10036820, “In vivo evaluation of integrin αvβ6-targeting peptide in NSCLC and brain metastasis” (Frontiers in Oncology, 2023).

The subject of data set [1] is integrin αvβ6. Further details: method as in PMID 29674419. Conditions: comparison in words; ref [16].
Data set [2] concerns HNSCC primary tumor and lymph node metastases. The arrangement: method as in PMID 29674419. To be noted: PET/CT, patient with HNSCC; ref [16].

Turning to “GRGDLGRL [SFLAP3, SFTI-based peptide containing latency-associated peptide (GRGDLGRL)]”, in data set [1], the “affinity to integrin αvβ6 relative to SFITGv6” value is on record as “better affinity”. In addition, in data set [2], the “SUVmax, lymph node metastases” value was 4.1 and the “SUVmax, primary tumor” value is given as 5.1.
